Laboratory results from US10946017B2, “Tank-binding kinase-1 PROTACs and associated methods of use” (Arvinas Operations, Inc., priority 2015, dated 2021).
Entries after “also recorded” stand apart in the source; their conditions may differ. Where two headings read alike, the source gives them in different places.

What was measured:
[1] = biological target: T1, TBK1 (Homo sapiens (Human), UniProt Q9UHD2); assay: In vitro TBK1 degradation assay, Panc02.13 cells (compounds 3-33), immunoblot; assay type: cell-based; conditions: for DC50: read-out: DC50 (concentration at which 50% degradation is observed)
Procedure: (§1) In vitro degradation assay protocol for compounds 3-33: Panc02.13 cells were purchased from ATCC and cultured in RPMI-1640 (Gibco), supplemented with 15% FBS (ATCC) and 10 Units/mL human recombinant insulin (Gibco). PROTAC treatments were carried out in 12-well plates for 16 h. TLR3 agonist Poly I:C (Invivogen; tlr1-pic) was added for the final 3 h. Cells were harvested, and lysed in RIPA buffer (50 mM Tris pH8, 150 mM NaCl, 1% Tx-100, 0.1% SDS, 0.5% Sodium Deoxycholate) supplemented with protease and phosphatase inhibitors. Lysates were clarified at 16,000 g for 10 minutes, and supernatants were separated by SDS-PAGE. Immunoblotting was performed using standard protocols. The antibodies used were TBK1 (Cell Signaling#3504), pIRF3 (abcam#ab76493), and GAPDH (Cell Signaling#5174).

[2] = biological target: Von Hippel-Lindau (VHL) E3 ligase (Homo sapiens (Human), UniProt P40337); assay: VHL binding, FP assay; conditions: affinity of the VHL ligand component with side chain R2
[3] = biological target: T1, TBK1; assay: TBK1 binding affinity (Kd)
[4] = tested on: KRAS mutant cell lines H23, A549 and H1792, and KRAS wild type cell line H2110; assay: Proliferation of KRAS mutant and wild type cell lines; assay type: cell-based; conditions: 72 hour treatment
[5] = biological target: T2, IKKε (Homo sapiens (Human), UniProt Q14164); assay: IKKε binding affinity (Kd)
[6] = tested on: pIRF3; assay: Inhibition of TBK1 downstream marker pIRF3 in cells; assay type: cell-based
Procedure: as §1

[7] = biological target: T2, IKKε; assay: IKKε degradation in cells; assay type: cell-based
[8] = biological target: T1, TBK1; assay: TBK1 degradation in KRAS mutant and wild type cell lines; assay type: cell-based; conditions: 72 hour treatment; H23, A549, H1792 (KRAS mutant), H2110 (KRAS wild type)
[9] = TBK1 degradation, Panc02.13 cells, 16 h, mean of ≥ 2 determinations

T2 sequence (Q14164 whole entry): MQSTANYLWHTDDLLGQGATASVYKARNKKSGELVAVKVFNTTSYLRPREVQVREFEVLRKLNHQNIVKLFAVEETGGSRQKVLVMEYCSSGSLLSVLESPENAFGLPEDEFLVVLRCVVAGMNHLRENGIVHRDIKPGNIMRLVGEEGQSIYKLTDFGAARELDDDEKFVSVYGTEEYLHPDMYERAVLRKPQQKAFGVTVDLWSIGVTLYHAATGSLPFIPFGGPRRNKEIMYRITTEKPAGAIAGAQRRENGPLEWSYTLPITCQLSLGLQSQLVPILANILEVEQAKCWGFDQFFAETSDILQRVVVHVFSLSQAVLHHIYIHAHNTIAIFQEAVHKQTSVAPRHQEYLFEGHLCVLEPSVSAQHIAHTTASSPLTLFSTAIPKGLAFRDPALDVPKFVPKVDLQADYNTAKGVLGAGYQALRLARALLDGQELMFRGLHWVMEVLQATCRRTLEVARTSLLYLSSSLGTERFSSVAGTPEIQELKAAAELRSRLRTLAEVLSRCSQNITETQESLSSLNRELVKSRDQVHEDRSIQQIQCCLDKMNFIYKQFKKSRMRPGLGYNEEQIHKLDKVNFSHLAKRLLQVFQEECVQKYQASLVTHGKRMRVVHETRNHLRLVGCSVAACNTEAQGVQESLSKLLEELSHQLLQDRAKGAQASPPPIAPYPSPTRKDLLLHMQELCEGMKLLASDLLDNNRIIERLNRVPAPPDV
Sequence of Von Hippel-Lindau (VHL) E3 ligase (P40337 whole entry, looked up): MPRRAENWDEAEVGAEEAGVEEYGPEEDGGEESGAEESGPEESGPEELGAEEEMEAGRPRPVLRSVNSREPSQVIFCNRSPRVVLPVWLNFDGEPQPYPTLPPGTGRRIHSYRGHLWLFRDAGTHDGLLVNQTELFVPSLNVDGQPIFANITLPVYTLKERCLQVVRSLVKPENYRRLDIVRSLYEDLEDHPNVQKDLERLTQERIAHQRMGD
Sequence of Von Hippel-Lindau (VHL) E3 ligase (Q15370 whole entry partner, looked up): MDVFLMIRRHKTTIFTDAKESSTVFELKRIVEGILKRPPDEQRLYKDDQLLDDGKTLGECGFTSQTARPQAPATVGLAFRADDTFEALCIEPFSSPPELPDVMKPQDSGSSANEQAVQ
Sequence of Von Hippel-Lindau (VHL) E3 ligase (Q15369 whole entry partner, looked up): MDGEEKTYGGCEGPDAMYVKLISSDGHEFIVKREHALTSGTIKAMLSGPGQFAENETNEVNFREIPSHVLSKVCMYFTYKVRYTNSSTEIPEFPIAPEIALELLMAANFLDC
T1 sequence (Q9UHD2 whole entry): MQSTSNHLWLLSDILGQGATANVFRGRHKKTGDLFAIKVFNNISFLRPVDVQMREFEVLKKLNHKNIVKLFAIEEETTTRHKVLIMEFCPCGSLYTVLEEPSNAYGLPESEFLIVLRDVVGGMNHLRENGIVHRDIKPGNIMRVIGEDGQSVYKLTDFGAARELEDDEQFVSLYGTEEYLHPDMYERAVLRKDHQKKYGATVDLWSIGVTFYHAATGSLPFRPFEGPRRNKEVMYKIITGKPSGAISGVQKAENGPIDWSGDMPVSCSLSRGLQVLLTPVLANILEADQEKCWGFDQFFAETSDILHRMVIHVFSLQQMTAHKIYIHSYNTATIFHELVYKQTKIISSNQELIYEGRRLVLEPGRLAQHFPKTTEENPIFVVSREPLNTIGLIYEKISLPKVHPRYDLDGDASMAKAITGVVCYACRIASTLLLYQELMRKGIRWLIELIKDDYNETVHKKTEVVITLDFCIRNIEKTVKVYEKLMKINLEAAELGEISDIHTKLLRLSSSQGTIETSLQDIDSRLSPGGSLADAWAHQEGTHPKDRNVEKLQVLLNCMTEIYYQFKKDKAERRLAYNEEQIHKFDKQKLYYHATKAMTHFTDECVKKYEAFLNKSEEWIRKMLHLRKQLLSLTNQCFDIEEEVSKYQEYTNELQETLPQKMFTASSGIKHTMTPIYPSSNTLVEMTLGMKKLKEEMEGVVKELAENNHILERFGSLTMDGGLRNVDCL

SMILES | Dmax (maximal degradation observed) [1, 9] | DC50 [1, 9] | IC50 [2] | Kd [3] | other results
CC[C@H](NC(=O)COCCCOCCCCOCCCOc1ccc(Nc2ncc(Br)c(NCCCN(C)C(=O)C3CCC3)n2)cc1)C(=O)N1C[C@H](O)C[C@H]1C(=O)NCc1ccc(-c2scnc2C)cc1 [Compound 31] | 71% | 864 nM | 70400 nM | – | Dmax (maximal degradation observed) ([1]; TBK1 degradation, Panc02.13 cells, 16 h, mean of ≥ 2 determinations, listed as PROTAC 31): > 70%
Cc1ncsc1-c1ccc(CNC(=O)[C@@H]2C[C@@H](O)CN2C(=O)CNC(=O)COCCCOCCCCOCCCOc2ccc(Nc3ncc(Br)c(NCCCN(C)C(=O)C4CCC4)n3)cc2)cc1 [Compound 29] | 0% | > 1000 nM | 106000 nM | – | –
Cc1ncsc1-c1ccc(CNC(=O)[C@@H]2C[C@@H](O)CN2C(=O)[C@@H](NC(=O)COCCCOCCCCOCCCOc2ccc(Nc3ncc(Br)c(NCCCN(C)C(=O)C4CCC4)n3)cc2)C(C)C)cc1 [Compound 33] | 88% | 44 nM | 1450 nM | – | –
Cc1ncsc1-c1ccc(CNC(=O)[C@@H]2C[C@@H](O)CN2C(=O)[C@@H](NC(=O)COCCCOCCCCOCCCOc2ccc(Nc3ncc(Br)c(NCCCN(C)C(=O)C4CCC4)n3)cc2)C(C)(C)C)cc1 [Compound 11, (2S,4R)-1-((S)-18-(4-((5-Bromo-4-((3-(N-methylcyclobutanecarboxamido)-propyl)amino)pyrimidin-2-yl)amino)phenoxy)-2-(tert-butyl)-4-oxo-6,10,15-trioxa-3-azaoctadecan-1-oyl)-4-hydroxy-N-(4-(4-methylthiazol-5-yl)benzyl)pyrrolidine-2-carboxamide] | – | 12 nM | 800 nM | 4.6 ± 1.1 nM | effect on proliferation of KRAS mutant versus wild type cells [4]: no differential effect on the proliferation; Dmax ([1]; TBK1 degradation, Panc02.13 cells, 16 h, mean of ≥ 2 determinations, read-out: Dmax (maximal degradation observed)): 96%; TBK1 degradation with excess VHL ligand 2 added ([1]; excess VHL ligand 2 as competitor): abrogated TBK1's degradation; TBK1 degradation (in words) ([1]; listed as PROTAC 11): Maximal efficacy; also recorded: effects degradation of TBK1; TBK1 degradation after pre-treatment with proteasome inhibitor carfilzomib ([1]; pre-treatment with carfilzomib, listed as PROTAC 11): markedly reduced the extent of TBK1 degradation; also recorded: abrogated; Kd [5]: 70 nM; intracellular TBK1 binding indicated by inhibition of pIRF3 [6]: competent intracellular TBK1 binding; IKKε degradation [7]: negligible degradation; degradation selectivity TBK1 over IKKε [7]: selectively degrades TBK1 over IKKε; TBK1 degradation in KRAS mutant and wild type cells [8]: near complete degradation of TBK1
Cc1ncsc1-c1ccc(CNC(=O)[C@@H]2C[C@@H](O)CN2C(=O)[C@H](C)NC(=O)COCCCOCCCCOCCCOc2ccc(Nc3ncc(Br)c(NCCCN(C)C(=O)C4CCC4)n3)cc2)cc1 [Compound 30] | 34% | > 1000 nM | 23600 nM | – | –
Cc1ncsc1-c1ccc(CNC(=O)[C@@H]2C[C@@H](O)CN2C(=O)[C@@H](NC(=O)COCCCOCCCCOCCCOc2ccc(Nc3ncc(C4CCC4)c(NCCCN(C)C(=O)C4CCC4)n3)cc2)C(C)(C)C)cc1 [Compound 22] | 70% | 544 nM | – | 1040 ± 165 nM | Kd ([3]; rounded value): 1000 nM
